Values quoted from earlier work in patent publication US9873698B2, “Spirocycles as inhibitors of 11-beta hydroxyl steroid dehydrogenase type 1” (Incyte Corporation, priority 2007, dated 2018).

Molecular target: T1, 11βHSD1 (Homo sapiens, UniProt P28845)
T1 construct: host or cells: healthy volunteers, eye (in vivo)
Settings: healthy volunteers, after seven days of carbenoxolone treatment

T1 sequence (P28845 whole entry): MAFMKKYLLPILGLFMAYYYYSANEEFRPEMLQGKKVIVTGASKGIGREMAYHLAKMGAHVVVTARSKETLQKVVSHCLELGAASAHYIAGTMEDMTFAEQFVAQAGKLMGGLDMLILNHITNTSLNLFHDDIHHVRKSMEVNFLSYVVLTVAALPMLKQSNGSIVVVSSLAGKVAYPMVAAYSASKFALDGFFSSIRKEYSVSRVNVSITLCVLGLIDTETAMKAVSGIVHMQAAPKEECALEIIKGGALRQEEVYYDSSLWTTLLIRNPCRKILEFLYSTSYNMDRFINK

IOP reduced by: 18%
Structure (SMILES): CC1(C)[C@@H](OC(=O)CCC(=O)O)CC[C@]2(C)[C@H]3C(=O)C=C4[C@@H]5C[C@@](C)(C(=O)O)CC[C@]5(C)CC[C@@]4(C)[C@]3(C)CC[C@@H]12 [carbenoxolone]
